Results published in US7649002B2, “(3,5-dimethylpiperidin-1yl)(4-phenylpyrrolidin-3-yl)methanone derivatives as MCR4 agonists” (Pfizer Inc, priority 2004, dated 2010).
Structures can show the parent of a compound that is named as a salt.

What follows are compounds tested against T1, human MCR4 receptor (Homo sapiens, UniProt P32245) (assay: MCR4 improved functional assay (Protocol E): CHO-K1-MC4R-CRE-β-lactamase reporter). Conditions: Protocols C or E, read-out: functional potency at the MC4 receptor (EC50).
T1 construct: expressed in transfected cells
Type: cell-based
From the text: (ii) MCR5 Standard Functional Assay Methodology and MCR4 Improved Functional Assay Methodology [Assay Protocol D and E Respectively] […] These cell lines were engineered using protocols akin to those outlined by Zaccolo et al (Zaccolo, M., (2000) Nature, 2(1); 25-29). Compound-induced activation of the MCR5 or MCR4 receptors in these two cell lines stimulated the production, and intracellular accumulation, of the enzyme β-lactamase. The quantity of β-lactamase enzyme produced was directly proportional to the degree to which the test compound activated the MCR5 or MCR4 receptors present on these cells and was quantified using the P-lactamase gene reporter analysis kit that is commercially available from Invitrogen Life Technologies. An in-depth description of this technology and assay protocols are available from the Invitrogen web site (www.invitrogen.com). The protocol listed below provides a summary of that assay methodology. The quantity of β-lactamase enzyme produced by compound-induced activation of the MCR5 or MCR4 receptors expressed in these cell lines was quantified using a LjI Biosystems Analyst™ HT 96.384 plate reader set to excite at a wave length of 405 nm, and measure the energy emitted at wave lengths of 450 nm and 530 nm. Cellular responses were quantified by dividing the measured energy emitted at a wavelength of 450 nm by the measured energy emitted at a wavelength of 530 nm. […] CCF4-AM was dissolved in 100% DMSO to give a final solution concentration of 1 mM. This solution was termed Solution A. Probenecid was dissolved in 200 mM NaOH to give a final solution concentration of 200 mM. This solution was termed Solution D. Composition of the β-lactamase assay dye solution: for 1072 μL of assay dye solution combine: 12 μL of Solution A, 60 μL of Solution B, 925 μL of Solution C and 75 μL of Solution D. […] Cells were grown in T225 vent cap flasks containing 50 ml of growth medium and maintained in a cell incubator at a temperature of 37° C. and in an environment containing 5% CO2. The composition of the growth medium for the CHO-K1-MC5R-CRE-β-lactamase was 90% v/v DMEM supplemented with; Glutamax-1, 25 mM HEPES, 10% v/v foetal calf serum (FCS), 1 mM sodium pyruvate, 0.1 mM non essential amino acids and 800 μg/ml genetic in. For the CHO-K1-MC4R-CRE-β-lactamase this growth media was further supplemented with […] Zeocin. Cells were harvested when they reached 80-90% confluency by first removing the existing growth medium and then washing with PBS that had been pre-warmed to a temperature of 37° C. This PBS was then removed and 5 ml of cell dissociation fluid added to the flask. These cells were incubated for 5 minutes in a cell incubator set at a temperature of 37° C. and in an environment containing 5% CO2 to detach the cells. When cells were detached, pre-warmed growth media was added, the cells re-suspended and mixed gently to achieve a single cell suspension by pipetting. This cell suspension was then used for experimentation, or transferred into a new T225 flask to perpetuate the cell culture. […] For each assay the cell plates were then retuned to a cell incubator maintained at a temperature of 37° C. and in an environment containing 5% CO2 overnight before performing the assay on the second assay day. […] For the MCR4 improved functional assay methodology the solution of cyclohexamide was not added. Subsequently, 10 μL of the test compound solution was transferred to the assay plate. The assay plate was then transferred to a cell incubator, set at 37° C. and in an environment containing 5% CO2, and left for 4 hours for the MCR4 improved assay methodology, or 5 hours for the MCR5 standard assay methodology. After this incubation period the plate was removed from the incubator, 10 μL of the […] assay dye solution was added to each well and then the plate returned to the cell incubator.

T1 sequence (P32245 whole entry): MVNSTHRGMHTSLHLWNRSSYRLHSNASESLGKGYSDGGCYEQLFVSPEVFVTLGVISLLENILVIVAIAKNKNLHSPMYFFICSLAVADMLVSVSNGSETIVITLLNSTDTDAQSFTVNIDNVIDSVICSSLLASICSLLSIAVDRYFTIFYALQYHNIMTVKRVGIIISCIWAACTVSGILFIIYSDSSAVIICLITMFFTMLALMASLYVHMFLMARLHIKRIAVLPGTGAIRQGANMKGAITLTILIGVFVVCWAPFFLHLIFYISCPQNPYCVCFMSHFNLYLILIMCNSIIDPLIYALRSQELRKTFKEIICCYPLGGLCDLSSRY

| Structure (SMILES) | EC50 |
| --- | --- |
| C[C@@H]1CN(C(=O)[C@@H]2CN(c3cncnc3)C[C@H]2c2ccc(F)cc2F)C[C@H](C)[C@@]1(O)c1ccccc1 [Example 36, (3R,4R,5S)-1-{[(3S,4R)-4-(2,4-Difluorophenyl)-1-pyrimidin-5-ylpyrrolidin-3-yl]carbonyl}-3,5-dimethyl-4-phenylpiperidin-4-ol hydrochloride] | < 150 nM |
| CC(C)N1C[C@@H](C(=O)N2C[C@@H](C)[C@](O)(c3ccc(F)cc3)[C@@H](C)C2)[C@H](c2ccc(F)cc2F)C1 [Example 10, (3R,4R,5S)-1-{[(3S,4R)-4-(2,4-difluorophenyl)-1-isopropylpyrrolidin-3-yl]carbonyl}-4-(4-fluorophenyl)-3,5-dimethylpiperidin-4-ol hydrochloride] | < 150 nM |
| C[C@@H]1CN(C(=O)[C@@H]2CN(C(C)(C)C)C[C@H]2c2ccc(F)cc2F)C[C@H](C)[C@@]1(O)c1ccc(F)cc1 [Example 9, (3R,4R,5S)-1-{[(3S,4R)-1-tert-butyl-4-(2,4-difluorophenyl)pyrrolidin-3-yl]carbonyl}-4-(4-fluorophenyl)-3,5-dimethylpiperidin-4-ol hydrochloride] | < 10 nM |
| C[C@@H]1CN(C(=O)[C@@H]2CNC[C@H]2c2ccc(F)cc2F)C[C@H](C)[C@@]1(O)c1cccc(F)c1 [Example 20, (3R,4R,5S)-1-{[(3S,4R)-4-(2,4-difluorophenyl)pyrrolidin-3-yl]carbonyl}-4-(3-fluorophenyl)-3,5-dimethylpiperidin-4-ol hydrochloride] | < 150 nM |
| C[C@@H]1CN(C(=O)[C@@H]2CNC[C@H]2c2ccc(Cl)cc2)C[C@H](C)[C@@]1(O)c1ccccc1 [Example 48, (3R,4R,5S)-1-{[(3S,4R)-4-(4-Chlorophenyl)pyrrolidin-3-yl]carbonyl}-3,5-dimethyl-4-phenylpiperidin-4-ol hydrochloride] | < 150 nM |
| C[C@@H]1CN(C(=O)[C@@H]2CN(C(C)(C)C)C[C@H]2c2ccc(F)cc2F)C[C@H](C)[C@@]1(O)c1ccc(F)c(F)c1 [Example 8, (3R,4R,5S)-1-{[(3S,4R)-1-tert-Butyl-4-(2,4-difluorophenyl)pyrrolidin-3-yl]carbonyl}-4-(3,4-difluorophenyl)-3,5-dimethylpiperidin-4-ol hydrochloride] | < 10 nM |
| C[C@@H]1CN(C(=O)[C@@H]2CN(C(C)(C)C)C[C@H]2c2ccc(F)cc2F)C[C@H](C)[C@@]1(O)c1c(F)cccc1F [Example 17, (3R,4R,5S)-1-[{(3S,4R)-1-tert-butyl-4-(2,4-difluorophenyl)pyrrolidin-3-yl]carbonyl}-4-(2,6-difluorophenyl)-3,5-dimethylpiperidin-4-ol hydrochloride] | < 50 nM |
| CCN1C[C@@H](C(=O)N2C[C@@H](C)[C@](O)(c3ccc(OC)cc3)[C@@H](C)C2)[C@H](c2ccc(F)cc2F)C1 [Example 14, (3R,4R,5S)-1-{[(3S,4R)-4-(2,4-difluorophenyl)-1-ethylpyrrolidin-3-yl]carbonyl}-4-(4-methoxyphenyl)-3,5-dimethylpiperidin-4-ol hydrochloride] | < 150 nM |
| C[C@@H]1CN(C(=O)[C@@H]2CNC[C@H]2c2ccc(F)cc2F)C[C@H](C)[C@@]1(O)c1ccc(F)cc1F [Example 16, (3R,4R,5S)-4-(2,4-difluorophenyl)-1-{[(3S,4R)-4-(2,4-difluorophenyl)pyrrolidin-3-yl]carbonyl}-3,5-dimethylpiperidin-4-ol hydrochloride] | < 150 nM |
| C[C@@H]1CN(C(=O)[C@@H]2CN(c3cccnc3)C[C@H]2c2ccc(F)cc2F)C[C@H](C)[C@@]1(O)c1ccccc1 [Example 34, (3R,4R,5S)-1-{[(3S,4R)-4-(2,4-Difluorophenyl)-1-pyridin-3-ylpyrrolidin-3-yl]carbonyl}-3,5-dimethyl-4-phenylpiperidin-4-ol hydrochloride] | < 10 nM |
| C[C@@H]1CN(C(=O)[C@@H]2CN(c3cnccn3)C[C@H]2c2ccc(F)cc2F)C[C@H](C)[C@@]1(O)c1ccccc1 [Example 33, (3R,4R,5S)-1-{[(3S,4R)-4-(2,4-Difluorophenyl)-1-pyrazin-2-ylpyrrolidin-3-yl]carbonyl}-3,5-dimethyl-4-phenylpiperidin-4-ol hydrochloride] | < 150 nM |

Results, then the compound that gave them:

| EC50 | Structure (SMILES) |
| --- | --- |
| < 10 nM | C[C@@H]1CN(C(=O)[C@@H]2CN(c3ccncn3)C[C@H]2c2ccc(F)cc2F)C[C@H](C)[C@@]1(O)c1ccccc1 [Example 42, (3R,4R,5S)-1-{[(3S,4R)-4-(2,4-difluorophenyl)-1-pyrimidin-4-ylpyrrolidin-3-yl]carbonyl}-3,5-dimethyl-4-phenylpiperidin-4-ol hydrochloride] |
| < 10 nM | C[C@@H]1CN(C(=O)[C@@H]2CN(c3cccnn3)C[C@H]2c2ccc(F)cc2F)C[C@H](C)[C@@]1(O)c1ccccn1 [Example 47, (3R,4R,5S)-1-{[(3S,4R)-4-(2,4-Difluorophenyl)-1-pyridazin-3-ylpyrrolidin-3-yl]carbonyl}-3,5-dimethyl-4-pyridin-2-ylpiperidin-4-ol hydrochloride] |
| < 50 nM | CC(C)N1C[C@@H](C(=O)N2C[C@@H](C)[C@](O)(c3ccc(F)cc3F)[C@@H](C)C2)[C@H](c2ccc(F)cc2F)C1 [Example 52, (3R,4R,5S)-4-(2,4-difluorophenyl)-1-{[(3S,4R)-4-(2,4-difluorophenyl)-1-isopropylpyrrolidin-3-yl]carbonyl}-3,5-dimethylpiperidin-4-ol hydrochloride] |
| < 150 nM | CCC[C@@]1(O)[C@H](C)CN(C(=O)[C@@H]2CN(C(C)(C)C)C[C@H]2c2ccc(F)cc2F)C[C@@H]1C [Example 40, (3R,4R,5S)-1-{[(3S,4R)-1-tert-Butyl-4-(24-difluorophenyl)pyrrolidin-3-yl]carbonyl}-3,5-dimethyl-4-propylpiperidin-4-ol hydrochloride] |
| < 150 nM | CC(C)N1C[C@@H](C(=O)N2C[C@@H](C)[C@](O)(c3ccc(Cl)cc3)[C@@H](C)C2)[C@H](c2ccc(F)cc2F)C1 [Example 50, (3R,4R,5S)-4-(4-chlorophenyl)-1-{[(3S,4R)-4-(2,4-difluorophenyl)-1-isopropylpyrrolidin-3-yl]carbonyl}-3,5-dimethylpiperidin-4-ol hydrochloride] |
| < 50 nM | C[C@@H]1CN(C(=O)[C@@H]2CN(c3ccncn3)C[C@H]2c2ccc(F)cc2F)C[C@H](C)[C@@]1(O)c1ccccn1 [Example 44, (3R,4R,5S)-1-{[(3S,4R)-4-(2,4-difluorophenyl)-1-pyrimidin-4-ylpyrrolidin-3-yl]carbonyl}-3,5-dimethyl-4-pyridin-2-ylpiperidin-4-ol hydrochloride] |
| < 50 nM | CC(C)N1C[C@@H](C(=O)N2C[C@@H](C)[C@](O)(c3ccc(F)c(F)c3)[C@@H](C)C2)[C@H](c2ccc(F)cc2F)C1 [Example 51, (3R,4R,5S)-4-(3,4-difluorophenyl)-1-{[(3S,4R)-4-(2,4-difluorophenyl)-1-isopropylpyrrolidin-3-yl]carbonyl}-3,5-dimethylpiperidin-4-ol hydrochloride] |

Same assay, conditions: Table 6, read-out: MCR4 EC50

| EC50 | Structure (SMILES) |
| --- | --- |
| 54 nM | C[C@@H]1CN(C(=O)[C@@H]2CNC[C@H]2c2ccc(F)cc2F)C[C@H](C)[C@@]1(O)c1ccc(F)cc1F [Example 16, (3R,4R,5S)-4-(2,4-difluorophenyl)-1-{[(3S,4R)-4-(2,4-difluorophenyl)pyrrolidin-3-yl]carbonyl}-3,5-dimethylpiperidin-4-ol hydrochloride] |
| 4 nM | C[C@@H]1CN(C(=O)[C@@H]2CN(c3cccnc3)C[C@H]2c2ccc(F)cc2F)C[C@H](C)[C@@]1(O)c1ccccc1 [Example 34, (3R,4R,5S)-1-{[(3S,4R)-4-(2,4-Difluorophenyl)-1-pyridin-3-ylpyrrolidin-3-yl]carbonyl}-3,5-dimethyl-4-phenylpiperidin-4-ol hydrochloride] |

Same assay, conditions: functional potency at the MC4 receptor (EC50), Protocols C or E

| Structure (SMILES) | EC50 |
| --- | --- |
| CCN1C[C@@H](C(=O)N2C[C@@H](C)[C@](O)(c3cccc(F)c3)[C@@H](C)C2)[C@H](c2ccc(F)cc2F)C1 [Example 53, (3R,4R,5S)-1-{[(3S,4R)-4-(2,4-difluorophenyl)-1-ethylpyrrolidin-3-yl]carbonyl}-4-(3-fluorophenyl)-3,5-dimethylpiperidin-4-ol hydrochloride] | < 50 nM |
| C[C@@H]1CN(C(=O)[C@@H]2CN(C(C)(C)C)C[C@H]2c2ccc(F)cc2F)C[C@H](C)[C@@]1(O)c1cccc(F)c1 [Example 19, (3R,4R,5S)-1-{[(3S,4R)-1-tert-butyl-4-(2,4-difluorophenyl)pyrrolidin-3-yl]carbonyl}-4-(3-fluorophenyl)-3,5-dimethylpiperidin-4-ol hydrochloride] | < 10 nM |
